Source: ChEMBL document CHEMBL1148558, “Optimization of CCR4 antagonists: side-chain exploration” (Bioorg Med Chem Lett, 2006)

The compounds below were run on Mus musculus (assay: In vivo efficacy against allergic lung inflammation in BABL/c mice administered sc). Details: not given.
Assay type: functional

Row | Structure (SMILES) | ED50 [mg/kg]
1 | O=C([C@H]1CCCCN1)N1CCN(c2nccc(NCc3ccc(Cl)cc3Cl)n2)CC1 | 30

The compounds below were run on L1.2 (assay: Cytotoxicity against CCR4 transfected L1.2 cells (murine pre-B cells)). Details: Mus musculus.
Assay type: functional, cell-based

Row | Structure (SMILES) | IC50 [µM]
2 | O=C([C@H]1CCCCN1)N1CCN(c2nccc(NCc3ccc(Cl)cc3Cl)n2)CC1 | > 100

The compounds below were run against T1, C-C chemokine receptor type 4 (Homo sapiens, UniProt P51679) (assay: Displacement of [125I]TARC from human CCR4 receptor transfected in HEK293 cells). Details: not given.
T1 sequence (P51679 whole entry): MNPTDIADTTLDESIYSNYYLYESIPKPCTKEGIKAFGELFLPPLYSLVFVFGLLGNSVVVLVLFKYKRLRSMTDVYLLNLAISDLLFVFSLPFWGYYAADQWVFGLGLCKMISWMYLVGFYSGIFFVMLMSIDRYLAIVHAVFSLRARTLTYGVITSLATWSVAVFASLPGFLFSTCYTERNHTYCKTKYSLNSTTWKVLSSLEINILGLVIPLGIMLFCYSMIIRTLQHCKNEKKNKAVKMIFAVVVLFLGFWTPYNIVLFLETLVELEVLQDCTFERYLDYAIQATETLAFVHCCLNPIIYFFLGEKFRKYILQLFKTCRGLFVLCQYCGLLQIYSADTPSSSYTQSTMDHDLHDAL
Assay type: cell-based

Row | Structure (SMILES) | IC50 [µM]
3 | CN1CCCC(C(=O)NCCNc2nccc(OCc3ccc(Cl)cc3Cl)n2)C1 (stereo not drawn) | > 10
4 | CN1CCCC(C(=O)NCCCNc2nccc(OCc3ccc(Cl)cc3Cl)n2)C1 (stereo not drawn) | > 10
5 | Cn1cnc(CC(=O)N2CCN(c3nccc(OCc4ccc(Cl)cc4Cl)n3)CC2)c1 | > 10
6 | O=C(C1CCNCC1)N1CCN(c2nccc(NCc3ccc(Cl)cc3Cl)n2)CC1 | > 10
7 | O=C(Cc1cccnc1)N1CCN(c2nccc(OCc3ccc(Cl)cc3Cl)n2)CC1 | > 10
8 | O=C(c1cccnc1)N1CCN(c2nccc(OCc3ccc(Cl)cc3Cl)n2)CC1 | > 10
9 | O=C(C1CNC1)N1CCN(c2nccc(NCc3ccc(Cl)cc3Cl)n2)CC1 | > 10

Compounds with a lower IC50, results first:

Row | IC50 [µM] | Structure (SMILES)
10 | 5.6 | CC(C)[C@@H](CNc1nccc(OCc2ccc(Cl)cc2Cl)n1)NC(=O)C1CCCN(C)C1 (stereo partly drawn)
11 | 1.2 | CN1CCCC(C(=O)N2CCN(c3nccc(OCc4ccc(Cl)cc4Cl)n3)CC2)C1 (stereo not drawn)
12 | 1 | O=C([C@@H]1CCCCN1)N1CCN(c2nccc(NCc3ccc(Cl)cc3Cl)n2)CC1
13 | 0.8 | O=C(C1CCCNC1)N1CCN(c2nccc(NCc3ccc(Cl)cc3Cl)n2)CC1 (stereo not drawn)
14 | 0.7 | CN1CCCC(C(=O)N2CCN(c3nccc(NCc4ccc(Cl)cc4Cl)n3)CC2)C1 (stereo not drawn)
15 | 0.3 | CN1CCCC(C(=O)N2CCN(c3ccnc(NCc4ccc(Cl)cc4Cl)n3)CC2)C1 (stereo not drawn)
16 | 0.06 | O=C([C@H]1CCCN1)N1CCN(c2nccc(NCc3ccc(Cl)cc3Cl)n2)CC1
17 | 0.05 | O=C([C@H]1CCCCN1)N1CCN(c2nccc(NCc3ccc(Cl)cc3Cl)n2)CC1

Each compound was assayed against T1, C-C chemokine receptor type 4 (assay: Calcium mobilization mediated by CCR4 receptor in CEMS529 cells by FLIPR). Details: not given.
Assay type: functional, cell-based

Row | IC50 [µM] | Structure (SMILES)
18 | 0.01 | O=C([C@H]1CCCCN1)N1CCN(c2nccc(NCc3ccc(Cl)cc3Cl)n2)CC1
